Columns and labels:
[1] = system: patients after ocular surgery; assay: Clinical Phase II, post-surgery intraocular inflammation: safety; conditions: for AEs considered by the Investigator to be related to Dexamethasone / AEs considered by the Investigator to be related to XG-102: blinded assessment
Procedure: The criteria for evaluation of safety were: • a. Visual acuity by ETDRS method • b. Slit Lamp examination findings • c. The results of the ophthalmic fundus examination • d. Intra Ocular Pressure (IOP) measurements • e. Vital signs (blood pressure (BP), pulse rate (PR) and rhythm) • f. The results of the hematology and chemistry laboratory tests • g. The occurrence of Adverse Events • h. Presence (or not) of XG-102 in plasma 1 hour after the administration of study treatment in a subset of patients (approximately 30).
An AE is therefore any unfavorable and unintended sign, symptom or disease temporally associated with the use of a medicinal product, whether or not considered related to the medicinal product.
A Suspected Unexpected Serious Adverse Reaction (SUSAR) was defined as a suspected adverse reaction related to the treatment that is both unexpected (i.e. not consistent with the expected outcomes of the study treatment being administered) and serious.
Patients were analyzed as treated, i.e. according to the treatment which they received. The safety set was the primary analysis set for the safety analysis.
The present study was a double-blind study. All patients who were randomized and for whom the sub-conjunctival injection was started are included in the safety analysis by dose group. […] If the study treatment eye drops were stopped prematurely (i.e. before day 21), the patients concerned continued follow-up until day 28, in accordance with the study protocol.
Investigators assessed (in a blinded manner) the relationship of each reported AE to any of the study treatments. An event was considered to be related to study treatment if the Investigator ticked either ‘possible’ or ‘probable’ as the reply to this question.

[2] = human, in vivo, 1 h
Procedure: The quantification (plasma) of XG-102 in plasma was evaluated in a subset of 32 patients located in one site. A venous blood sample (2 ml) was obtained using a Li-Heparin tube 60 minutes after sub-conjunctival administration of study treatment. The exact time when the sample was performed was entered in the space provided on the e-CRF. The blood sample was centrifuged for 10 minutes at 2,500 RPM at room temperature. After centrifugation, using a pipette, the plasma was transferred to two 1.5 ml cryotubes. The cryotubes were then placed in a freezer at −80° C. and were then subsequently sent in dry ice with a temperature data logger to the central laboratory responsible for the analysis. Upon receipt at the central laboratory, the samples were stored at −80° C. until analyzed.

[3] = system: Wistar rats, PAN-induced nephropathy; conditions: rat, in vivo
Description: The aim of this study was to evaluate the effects of XG-102 on chronic puromycine aminonucleoside-induced nephropathy in rats during 56 days. Puromycin aminonucleoside (PAN) is a podocyte toxin inducing a loss and fusion of podocytes foot processes. PAN-induced nephropathy is a well-described model of human idiopathic […] syndrome and focal segmental glomerulosclerosis ([…], 2008). The glomerular morphologic changes seen in rats with PAN nephrosis closely resemble those in human minimal change disease (MCD) and focal segmental glomerulosclerosis (FSGS). Intraperitoneal administration of PAN in rats results in a rapid development of […] syndrome, characterized by proteinuria, hypoalbuminemia and hypercholesterolemia (acute phase). This is a well-established animal model of human MCD. […] The slides were stained by hematoxylin/eosin (HE), PAS-methenamine silver and Sirius Red for histological evaluation of morphological alterations, glomerulosclerosis and interstitial fibrosis quantification, respectively. […] Results are expressed by semi-quantitative scoring following to expert histopathologist evaluation. For the histological examination of glomerulosclerosis glomerular changes have been evaluated using a semi quantitative scoring system as described by […]. […] All data have been calculated as mean values±standard error of the mean (s.e.m.). […]

## CC(C)C[C@@H](NC(=O)[C@@H](Cc1ccccc1)NC(=O)[C@H]1CCCN1C(=O)[C@@H](CCC(N)=O)NC(=O)[C@H](NC(=O)[C@H]1CCCN1C(=O)[C@@H](CCCNC(=N)N)NC(=O)[C@@H](CO)NC(=O)[C@@H](CCC(N)=O)NC(=O)[C@H](N)CC(=O)O)C(C)C)C(=O)N[C@H](CC(N)=O)C(=O)N[C@H](CC(C)C)C(=O)N[C@@H](C(=O)N[C@@H](C(=O)N1CCC[C@@H]1C(=O)N[C@H](CCCNC(=N)N)C(=O)N[C@H](CCCCN)C(=O)N1CCC[C@@H]1C(=O)N[C@H](CCCNC(=N)N)C(=O)N1CCC[C@@H]1C(=O)N1CCC[C@@H]1C(=O)N[C@H](CCCNC(=N)N)C(=O)N[C@H](CCCNC(=N)N)C(=O)N[C@H](CCCNC(=N)N)C(=O)N[C@H](CCC(N)=O)C(=O)N[C@H](CCCNC(=N)N)C(=O)N[C@H](CCCNC(=N)N)C(=O)N[C@H](CCCCN)C(=O)N[C@H](CCCCN)C(=O)N[C@H](CCCNC(=N)N)C(=O)NCC(=O)O)[C@H](C)O)[C@H](C)O [XG-102]
[1]; 90 μg XG-102 (N = 47)
  AEs possibly or probably related to study treatment as assessed by the Investigator: 18 Total # events
[1]; 90 μg XG-102 group
  AEs considered by the Investigator to be related to Dexamethasone: 2 (2.6%) Total # events (%)
  AEs considered by the Investigator to be related to XG-102: 16 (20.5%) Total # events (%)
[1]; 900 μg XG-102 (N = 48)
  AEs possibly or probably related to study treatment as assessed by the Investigator: 13 Total # events
[1]; 900 μg XG-102 group
  AEs considered by the Investigator to be related to Dexamethasone: 1 (1.5%) Total # events (%)
  AEs considered by the Investigator to be related to XG-102: 12 (17.4%) Total # events (%)
[1]; XG-102 90 μg
  AEs possibly or probably related to study medication: 18 events
  Intraocular pressure increased, patients: 23%
  events in SOC EYE DISORDERS: 49 events
  events resulting in premature withdrawal of study treatment eye drops: 11 events
  patients with SAEs: 4 patients
  patients with events in SOC EYE DISORDERS: 26 (55%)
  percentage of patients with an AE within 24 hours after administration: 34%
  total number of AEs reported: 78
[1]; XG-102 90 μg dose group
  Reported AEs by severity: Mild: 55 (70.5%) number of events (% of reported events)
  Reported AEs by severity: Moderate: 6 (7.7%) number of events (% of reported events)
  Reported AEs by severity: Severe: 17 (21.7%) number of events (% of reported events)
[1]; XG-102 900 μg
  AEs possibly or probably related to study medication: 13 events
  Intraocular pressure increased, patients: 10%
  events in SOC EYE DISORDERS: 43 events
  events resulting in premature withdrawal of study treatment eye drops: 8 events
  patients with SAEs: 3 patients
  patients with events in SOC EYE DISORDERS: 24 (50%)
  percentage of patients with an AE within 24 hours after administration: 27%
  total number of AEs reported: 69
[1]; XG-102 900 μg dose group
  Reported AEs by severity: Mild: 49 (71.0%) number of events (% of reported events)
  Reported AEs by severity: Moderate: 12 (17.4%) number of events (% of reported events)
  Reported AEs by severity: Severe: 8 (11.6%) number of events (% of reported events)
[1]; XG-102 900 μg vs dexamethasone (p=0.029)
  Eye pain: Eye pain was more frequently reported for patients allocated to the XG-102 900 μg group
[2]
  XG-102 concentration in plasma: < 10 ng/mL
[3]
  body weight: no effects of XG-102 were observed

Reference: US11779628B2, “Use of cell-permeable peptide inhibitors of the JNK signal transduction pathway for the treatment of various diseases” (Xigen Inflammation Ltd., priority 2014, dated 2023)
